# Laboratory results as given in article PMC11013284, “Chemoselective Synthesis and Anti-Kinetoplastidal Properties of 2,6-Diaryl-4H-tetrahydro-thiopyran-4-one S-Oxides: Their Interplay in a Cascade of Redox Reactions from Diarylideneacetones” (Molecules, 2024).
# Read-outs that look alike come from different tables or passages of the source.
# Key:
# [1] = test system: Trypanosoma cruzi (Tulahuen CL2 β-galactosidase) amastigotes in hMRC-5SV2 cells; assay: T. cruzi intracellular amastigote assay (β-galactosidase/CPRG); format: cell-based; settings: intracellular amastigotes, 7 days; for IC50: read-out: IC50 T. cruzi intramacrophage amastigotes (converted)
# Protocol: A nifurtimox-sensitive strain (Tulahuen CL2 β-galactosidase) in human lung fibroblast hMRC-5SV2 cells was incubated for 7 days in 96-well plates with five concentrations of compound (64, 16, 4, 1, and 0.25 μM). The parasitic burden was evaluated through the activity of the enzyme β-galactosidase on a specific chlorophenol red ß-D-galactopyranoside (CPRG) substrate. Live parasites converted the yellow-orange CPRG substrate into the red chromophore chlorophenol red, yielding a dark-red solution, which could be quantitatively measured at 540 nm after 4 h of incubation at 37 °C. The results were expressed as a percentage reduction in parasite growth/viability compared to control wells, and an IC50 was calculated.
# [2] = test system: L. infantum (MHOM/MA(BE)/67) amastigotes in primary peritoneal mouse macrophages; assay: L. infantum intramacrophage amastigote assay (microscopic burden); format: cell-based, Leishmania infantum; settings: 5 days, mouse macrophages as host
# Protocol: L. infantum (MHOM/MA(BE)/67 strain) amastigote were incubated for 5 days in 96-well plates with five concentrations of compound (64, 16, 4, 1, and 0.25 μM). Primary peritoneal mouse macrophages were used as host cells. Parasite burdens (i.e., the number of amastigotes per macrophage) were microscopically assessed. The results were expressed as a percentage reduction in parasite burden compared to untreated control wells, and an IC50 was calculated.
# [3] = in vitro; settings: human, CC50 hMRC-5 (cytotoxicity)
# Protocol: (§1) The cytotoxicity of compounds was evaluated toward human diploid embryonic lung fibroblast hMRC-5SV2 cells, derived from fetal lung tissue and first described in 1970. hMRC-5SV2 cells were cultured in 96-well plates with five concentrations of the compound (64, 16, 4, 1, and 0.25 μM). After 3 days of incubation, the cell viability was assessed fluorimetrically after the addition of resazurin, and fluorescence was measured (λex = 550 nm, λem = 590 nm). The results were expressed as a percentage reduction in cell growth/viability compared to control wells, and a 50% cytotoxic concentration (CC50) was calculated. The reference cytotoxic drugs were tamoxifen or ivermectin. Additionally, toxicity toward mouse macrophages was qualitatively observed. Three concentrations were included (64, 16, and 4 µM), and the range of toxicity was ranked from the least toxic to the most toxic compound.
# [4] = test system: WT LV9 L. donovani intramacrophage amastigotes; assay: L. donovani intramacrophage amastigote assay; format: cell-based, Leishmania donovani; settings: WT LV9, ± SD in Tables S5/S6, read-out: IC50 L. donovani intramacrophage amastigotes
# [5] = test system: Trypanosoma brucei brucei trypomastigotes, suramin-sensitive strain (Squib 427); assay: T. b. brucei growth/viability assay (resazurin); format: cell-based; settings: 3 days
# Protocol: After 3 days, parasite growth was assessed fluorimetrically following the addition of resazurin. After 24 h at 37 °C, fluorescence was measured (λex = 550 nm, λem = 590 nm). The results were expressed as a percentage reduction in parasite growth/viability compared to control wells, and a 50% inhibitory concentration (IC50) was calculated.
# [6] = test system: human diploid embryonic lung fibroblast hMRC-5SV2 cells; assay: in vitro
# Protocol: as §1
# [7] = test system: macrophages; settings: bracketed value after the intramacrophage IC50 (Table S5); Table S6
# [8] = Trypanosoma cruzi, TULAHUEN, 168 h
# [9] = Leishmania infantum, Macrophage, 120 h
SMILES,IC50 [1],IC50 [2],CC50 [6],IC50 [5],other results
"COc1ccc(C2CC(=O)CC(c3ccc(OC)cc3)[S+]2[O-])cc1 (mixture of isomers) [3d, (±)-trans-2,6-Di-(p-anisyl)-4H-tetrahydrothiopyran-4-one 1-oxide]",8.9 µM,≥ 64 µM,,,"CC50 at 3 days [3]: 32.2 µM; IC50 [4]: 50.2 µM; IC50 ([5]; Trypanosoma brucei, 72 h): 3.1 µM"
O=C1CC(c2ccccc2Cl)SC(c2ccccc2Cl)C1 (racemic) [2e],> 64 µM,32 µM,> 64 µM,> 64 µM,observed macrophage death / lysis observed at [7]: > 150 µM; IC50 [4]: 14.2 ± 1.3 µM
COc1ccc(C2CC(=O)CC(c3ccc(OC)c(OC)c3)S2)cc1OC (racemic) [2j],7.3 µM,32.5 µM,9.3 µM,8.1 µM,observed macrophage death / lysis observed at [7]: > 150 µM; IC50 [4]: 19.3 ± 7.1 µM
O=C1CC(c2ccc(C(F)(F)F)cc2)SC(c2ccc(C(F)(F)F)cc2)C1 (racemic) [2r],2.5 µM,32.5 µM,10.2 µM,0.5 µM,observed macrophage death / lysis observed at [7]: 200 µM; IC50 [4]: 68.6 ± 41.2 µM
N#Cc1ccc(C2CC(=O)CC(c3ccc(C#N)cc3)S2)cc1 (racemic) [2t],42.5 µM,> 64 µM,> 64 µM,1.2 µM,observed macrophage death / lysis observed at [7]: > 100 µM; IC50 [4]: > 50 µM
CC(=O)Nc1ccc(C2CC(=O)CC(c3ccc(NC(C)=O)cc3)S2)cc1 (racemic) [2v],> 64 µM,> 64 µM,> 64 µM,> 64 µM,observed macrophage death / lysis observed at [7]: > 100 µM; IC50 [4]: > 50 µM
O=C1C[C@H](c2ccccn2)S[C@@H](c2ccccn2)C1 (racemic) [2w],≥ 64 µM,≥ 64 µM,,,"IC50 [1, 8]: > 64 µM; IC50 [2, 9]: > 64 µM; CC50 at 3 days [3]: > 64 µM; CC50 ([6]; human, 3 days): ≥ 64 µM; IC50 ([4]; Leishmania donovani): > 100 µM; IC50 ([5]; Trypanosoma brucei, 72 h): 26.1 µM"
O=C1CC(c2ccco2)SC(c2ccco2)C1 (racemic) [2z],> 64 µM,> 64 µM,> 64 µM,> 64 µM,observed macrophage death / lysis observed at [7]: > 150 µM; IC50 [4]: 3.2 ± 0.8 µM
COc1ccc([C@H]2CC(=O)C[C@H](c3ccc(OC)cc3)S2)cc1 (relative stereo) [2d],≥ 64 µM,≥ 64 µM,,≥ 64 µM,"IC50 [1, 8]: > 64 µM; IC50 [2, 9]: > 64 µM; CC50 at 3 days [3]: > 64 µM; CC50 ([6]; human, 3 days): ≥ 64 µM; IC50 ([5]; Trypanosoma brucei, 72 h): > 64 µM"
Cc1ccccc1/C=C/C(=O)/C=C/c1ccccc1C [1b],51.7 µM,8.1 µM,> 64 µM,> 64 µM,observed macrophage death / lysis observed at [7]: > 37.5 µM; IC50 [4]: 11.9 ± 1.1 µM
COc1ccc(/C=C/C(=O)/C=C/c2ccc(OC)cc2)cc1 [1d],,≥ 64 µM,,1.24 µM,"IC50 [1, 8]: 10.7 µM; IC50 [2, 9]: > 64 µM; CC50 at 3 days [3]: > 64 µM; CC50 ([6]; human, 3 days): ≥ 64 µM; IC50 ([5]; Trypanosoma brucei, 72 h): 1.2 µM"
COc1cc(/C=C/C(=O)/C=C/c2ccc(O)c(OC)c2)ccc1O [1i],1 µM,≥ 32 µM,1.1 µM,≤ 0.3 µM,
C=CCOc1ccc(/C=C/C(=O)/C=C/c2ccc(OCC=C)c(OC)c2)cc1OC [1k],36.9 µM,> 64 µM,> 64 µM,6.8 µM,
COc1ccc(O)c(/C=C/C(=O)/C=C/c2cc(OC)ccc2O)c1 [1l],,,,,"IC50 [1, 8]: 1 µM; IC50 [2, 9]: ≥ 32 µM; CC50 at 3 days [3]: 1.9 µM; IC50 ([5]; Trypanosoma brucei, 72 h): ≤ 0.3 µM"
O=C(/C=C/c1ccccc1)/C=C/c1ccc(C(F)(F)F)cc1 [1’b],33.8 µM,> 64 µM,> 64 µM,2.2 µM,
CN(C)c1ccc(/C=C/C(=O)/C=C/c2ccc(C(F)(F)F)cc2)cc1 [1’c],31.7 µM,8 µM,> 64 µM,9.2 µM,
N#Cc1ccc(/C=C/C(=O)/C=C/c2ccccc2)cc1 [1’l],3.3 µM,7 µM,38.7 µM,≤ 0.2 µM,

SMILES,IC50 [1],IC50 [2],CC50 [6],IC50 [5],other results
O=C(/C=C/c1ccccc1)/C=C/c1ccccn1 [1’n],0.5 µM,1.3 µM,1.5 µM,≤ 0.2 µM,
O=C(/C=C/c1ccccc1)/C=C/c1ccncc1 [1’o],≤ 0.2 µM,0.5 µM,2 µM,≤ 0.2 µM,
CN(C)c1ccc(/C=C/C(=O)/C=C/c2ccc(F)cn2)cc1 [1’q],> 64 µM,32.5 µM,32.2 µM,13.3 µM,
O=C(/C=C/c1ccccc1)/C=C/c1ncccn1 [1’r],≤ 0.2 µM,0.4 µM,1.6 µM,≤ 0.2 µM,
O=C1C[C@@H](c2ccccc2Cl)S[C@@H](c2ccccc2Cl)C1 [2’e],35 µM,> 64 µM,> 64 µM,37.6 µM,
O=C1C[C@@H](c2ccc(F)cc2)S[C@@H](c2ccc(F)cc2)C1 [2’g],1.4 µM,2.1 µM,6.4 µM,2.1 µM,
COc1cc([C@@H]2CC(=O)C[C@H](c3cc(OC)c(C)cc3OC)S2)c(OC)cc1C [2’o],37.2 µM,5.1 µM,> 64 µM,32.5 µM,
COc1cc(Br)c(OC)c([C@@H]2CC(=O)C[C@H](c3cc(OC)cc(Br)c3OC)S2)c1 [2’q],17.1 µM,8.6 µM,> 64 µM,32.2 µM,
COc1ccc(C2CC(=O)CC(c3ccc(OC)cc3)S2)cc1 (stereo not shown) [2′d],≥ 64 µM,≥ 64 µM,,≥ 64 µM,"IC50 [1, 8]: > 64 µM; IC50 [2, 9]: > 64 µM; CC50 at 3 days [3]: > 64 µM; CC50 ([6]; human, 3 days): ≥ 64 µM; IC50 ([4]; Leishmania donovani): > 100 µM; IC50 ([5]; Trypanosoma brucei, 72 h): > 64 µM"
O=C1CC(c2ccccn2)SC(c2ccccn2)C1 (stereo not shown) [2′w],≥ 64 µM,≥ 64 µM,,29.1 µM,"IC50 [1, 8]: > 64 µM; IC50 [2, 9]: > 64 µM; CC50 at 3 days [3]: > 64 µM; CC50 ([6]; human, 3 days): ≥ 64 µM; IC50 ([4]; Leishmania donovani): > 100 µM; IC50 ([5]; Trypanosoma brucei, 72 h): 29.6 µM"
"COc1ccc(C2CC(=O)CC(c3ccc(OC)cc3)[S+]2[O-])cc1 (stereo not drawn) [3′d, (anti)- and (syn)-cis-2,6-Di-(p-anisyl)-4H-tetrahydro-thiopyran-4-one 1-oxides]",≥ 64 µM,≥ 64 µM,,2.3 µM,"IC50 T. cruzi intramacrophage amastigotes [1]: inactive; IC50 L. infantum intramacrophage amastigotes [2]: inactive; CC50 ([6]; human, 3 days): ≥ 64 µM; IC50 [4]: > 100 µM"
"CC1CS(=O)(=O)CCN1/N=C/c1ccc([N+](=O)[O-])o1 (stereo not shown) [Nifurtimox, nifurtimox, reference compound]",,,,,"IC50 [1, 8]: 0.845 ± 0.2 µM"
"Cc1ccc(C(=O)Nc2ccc(S(=O)(=O)O)c3cc(S(=O)(=O)O)cc(S(=O)(=O)O)c23)cc1NC(=O)c1cccc(NC(=O)Nc2cccc(C(=O)Nc3cc(C(=O)Nc4ccc(S(=O)(=O)O)c5cc(S(=O)(=O)O)cc(S(=O)(=O)O)c45)ccc3C)c2)c1 [Suramin, suramin, reference compound]",,,,0.03 µM,
"CC/C(=C(\c1ccccc1)c1ccc(OCCN(C)C)cc1)c1ccccc1 [Tamoxifen, tamoxifen, reference compound]",,,,,CC50 at 3 days [3]: 9.12 µM
"O=C(Cn1ccnc1[N+](=O)[O-])NCc1ccccc1 [benznidazole, reference compound]",,,,,"IC50 [1, 8]: 1.93 µM"
"CC[C@H](C)[C@H]1O[C@]2(CC[C@@H]1C)C[C@@H]1C[C@@H](C/C=C(\C)[C@@H](O[C@H]3C[C@H](OC)[C@@H](O[C@H]4C[C@H](OC)[C@@H](O)[C@H](C)O4)[C@H](C)O3)[C@@H](C)/C=C/C=C3\CO[C@@H]4[C@H](O)C(C)=C[C@@H](C(=O)O1)[C@]34O)O2 [ivermectine, ivermectin, reference compound]",,,,,"CC50 ([6]; read-out: CC50 hMRC-5 (cytotoxicity), human hMRC-5SV2 fibroblasts, 3 days): 3.5 µM"
"CCCCCCCCCCCCCCCCOP(=O)([O-])OCC[N+](C)(C)C [miltefosine, Hexadecyl-Phosphoryl-Choline, reference compound]",,,,,IC50 ([4]; Leishmania donovani): 19.1 ± 0.1 µM
